For 32 molecules, IC50 results are on record in patent US9242996B2 (Novartis AG, priority 2013, dated 2016).

The structures appear in SMILES notation.

activated ERK2, sequence (P28482 whole entry): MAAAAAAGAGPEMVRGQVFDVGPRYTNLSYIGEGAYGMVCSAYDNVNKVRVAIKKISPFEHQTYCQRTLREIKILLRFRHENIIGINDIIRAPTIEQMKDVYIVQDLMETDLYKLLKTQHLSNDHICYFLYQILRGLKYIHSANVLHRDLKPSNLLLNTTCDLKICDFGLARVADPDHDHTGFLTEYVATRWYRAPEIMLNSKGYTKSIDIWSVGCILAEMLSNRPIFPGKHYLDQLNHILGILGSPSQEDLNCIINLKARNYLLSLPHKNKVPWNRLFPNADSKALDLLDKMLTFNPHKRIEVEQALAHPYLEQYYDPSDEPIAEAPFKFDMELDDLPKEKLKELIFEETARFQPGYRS

The target in the assay is activated ERK2 (Homo sapiens (Human), UniProt P28482). Nature of the assay: Activated ERK2 kinase assay, ERK2 New conditions (AlphaScreen, ERKtide phosphorylation). The class given is biochemical. The note with it: 0.25 nM ERK2, 200 nM ERKtide peptide, 35 μM ATP, 30 min preincubation. Put shortly:
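0.25 nM ERK2 preincubated 30 min with compound, then reacted 2–3 h at ambient temperature with 200 nM ERKtide and 35 µM ATP (final) in HEPES pH 7.5 buffer. EDTA stop; phospho-peptide detected by AlphaScreen after overnight incubation; IC50 from four-parameter fit.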
(In general: Alpha assays give light when donor and acceptor beads are brought close together.)
As for `COCCc1cnc(N)c(-c2ccc(C(=O)N[C@H](CO)c3ccccc3)c(F)c2)n1` [Example 112, (S)-4-(3-amino-6-(2-methoxyethyl)pyrazin-2-yl)-2-fluoro-N-(2-hydroxy-1-phenylethyl)benzamide], 141 nM corresponded to half-maximal inhibition (IC50).
With `Nc1ncc(C2CCOCC2)cc1-c1ccc(C(=O)N[C@@H]2CCCN(Cc3ccccc3F)C2)c(F)c1` [Example 113, (R)-4-(2-amino-5-(tetrahydro-2H-pyran-4-yl)pyridin-3-yl)-2-fluoro-N-(1-(2-fluorobenzyl)piperidin-3-yl)benzamide] the figure was 780 nM; with `N#CCCc1cnc(N)c(-c2ccc(C(=O)N[C@H](CO)c3ccccc3)c(F)c2)n1` [Example 114, (S)-4-(3-amino-6-(2-cyanoethyl)pyrazin-2-yl)-2-fluoro-N-(2-hydroxy-1-phenylethyl)benzamide], 124 nM; with `Nc1ncc(C2CCOCC2)nc1-c1ccc(C(=O)N[C@H]2CCCN(Cc3ccccc3F)C2)c(F)c1` [Example 125, (S)-4-(3-amino-6-(tetrahydro-2H-pyran-4-yl)pyrazin-2-yl)-2-fluoro-N-(1-(2-fluorobenzyl)piperidin-3-yl)benzamide], 2230 nM.
With `Nc1ncc(C2CCOCC2)nc1-c1ccc(C(=O)N[C@@H]2CCCN(Cc3ccccc3F)C2)c(F)c1` [Example 126, (R)-4-(3-amino-6-(tetrahydro-2H-pyran-4-yl)pyrazin-2-yl)-2-fluoro-N-(1-(2-fluorobenzyl)piperidin-3-yl)benzamide] the figure was 169 nM.
For `Cn1cc(-c2cnc(N)c(-c3ccc(C(=O)N[C@H](CO)c4cccc(Cl)c4)c(F)c3)c2)nn1` [Example 128, (S)-4-(2-amino-5-(1-methyl-1H-1,2,3-triazol-4-yl)pyridin-3-yl)-N-(1-(3-chlorophenyl)-2-hydroxyethyl)-2-fluorobenzamide] the value was 0.835 nM.
Turning to `Nc1ncc(-c2ccc(=O)[nH]c2)nc1-c1ccc(C(=O)N[C@H](CO)c2ccccc2)cc1` [Example 129, (S)-4-(3-amino-6-(6-oxo-1,6-dihydropyridin-3-yl)pyrazin-2-yl)-N-(2-hydroxy-1-phenylethyl)benzamide], the IC50 (as a rule, the concentration that inhibits the measured activity by half) is 2.02 nM.
For `N#CCc1cnc(N)c(-c2ccc(C(=O)N[C@H](CO)c3ccccc3)c(F)c2)c1` [Example 134, (S)-4-(2-amino-5-(cyanomethyl)pyridin-3-yl)-2-fluoro-N-(2-hydroxy-1-phenylethyl)benzamide] the value was 202 nM; for `Nc1ncc([C@@H]2CCOC2)nc1-c1ccc(C(=O)N[C@H](CO)c2ccccc2)cc1` [Example 136, 4-(3-amino-6-((S)-tetrahydrofuran-3-yl)pyrazin-2-yl)-N—((S)-2-hydroxy-1-phenylethyl)benzamide], 4.51 nM; for `Nc1ncc([C@H]2CCOC2)nc1-c1ccc(C(=O)N[C@H](CO)c2ccccc2)cc1` [Example 137, 4-(3-amino-6-((R)-tetrahydrofuran-3-yl)pyrazin-2-yl)-N—((S)-2-hydroxy-1-phenylethyl)benzamide], 31 nM.
`Nc1ncc(-c2ccoc2)nc1-c1ccc(C(=O)N[C@H](CO)c2ccccc2)cc1` [Example 138] displayed an IC50 of 13.3 nM.
`Cc1cnccc1-c1cnc(N)c(-c2ccc(C(=O)NCc3cccc(S(C)(=O)=O)c3)cc2)n1` [Example 139, 4-(3-amino-6-(3-methylpyridin-4-yl)pyrazin-2-yl)-N-(3-(methylsulfonyl)benzyl)benzamide] came in with an IC50 of 7.95 nM.
With `Cn1cncc1-c1cnc(N)c(-c2ccc(C(=O)N[C@H](CO)c3ccccc3)c(F)c2)c1` [Example 140, (S)-4-(2-amino 5-(1-methyl-1H-imidazol-5-yl)pyridin-3-yl)-2-fluoro-N-(2-hydroxy-1-phenylethyl)benzamide] the figure was 1.41 nM.
With `Cn1nncc1-c1cnc(N)c(-c2cc(F)c(C(=O)N[C@H](CO)c3cccc(Cl)c3)c(F)c2)c1` [Example 141, (S)-4-(2-amino-5-(1-methyl-1H-1,2,3-triazol-5-yl)pyridin-3-yl)-N-(1-(3-chlorophenyl)-2-hydroxyethyl)-2,6-difluorobenzamide] the figure was 0.183 nM; with `Nc1ncc(-c2ccnnc2)nc1-c1ccc(C(=O)N[C@H](CO)c2ccccc2)c(F)c1` [Example 144, (S)-4-(3-amino-6-(pyridazin-4-yl)pyrazin-2-yl)-2-fluoro-N-(2-hydroxy-1-phenylethyl)benzamide], 1.18 nM; with `Cn1cc(-c2cnc(N)c(-c3ccc(C(=O)N[C@H](CO)c4ccccc4)cc3)n2)cn1` [Example 146, (S)-4-(3-amino-6-(1-methyl-1H-pyrazol-4-yl)pyrazin-2-yl)-N-(2-hydroxy-1-phenylethyl)benzamide], 3.39 nM.
In turn, `Cn1cc(-c2cnc(N)c(-c3ccc(C(=O)NCc4cccc(S(C)(=O)=O)c4)c(F)c3)n2)cn1` [Example 147, 4-(3-amino-6-(1-methyl-1H-pyrazol-4-yl)pyrazin-2-yl)-2-fluoro-N-(3-(methylsulfonyl)benzyl)benzamide] gave an IC50 of 45.4 nM.
In turn, `Cn1cc(-c2cnc(N)c(-c3ccc(C(=O)N[C@H](CO)c4ccccc4)c(F)c3)n2)cn1` [Example 148, (S)-4-(3-amino-6-(1-methyl-1H-pyrazol-4-yl)pyrazin-2-yl)-2-fluoro-N-(2-hydroxy-1-phenylethyl)benzamide] returned an IC50 of 1.9 nM.
For the molecule `Cc1cc(-c2cc(-c3cnnn3C)cnc2N)ccc1C(=O)N[C@H](CO)c1cccc(Cl)c1` [Example 149, (S)-4-(2-amino-5-(1-methyl-1H-1,2,3-triazol-5-yl)pyridin-3-yl)-N-(1-(3-chlorophenyl)-2-hydroxyethyl)-2-methylbenzamide], the IC50 is 0.149 nM.
Molecule `Cc1nn(C)cc1-c1cnc(N)c(-c2ccc(C(=O)N[C@H](CN)c3ccccc3)c(F)c2)c1` [Example 153, (S)-N-(2-amino-1-phenylethyl)-4-(2-amino-5-(1,3-dimethyl-1H-pyrazol-4-yl)pyridin-3-yl)-2-fluorobenzamide] gave an IC50 of 0.38 nM.
For `Cc1nn(C)c(C)c1-c1cnc(N)c(-c2ccc(C(=O)N[C@H](CO)c3cccc(Cl)c3)c(F)c2)c1` [Example 154, (S)-4-(2-amino 5-(1,3,5-trimethyl-1H-pyrazol-4-yl)pyridin-3-yl)-N-(1-(3-chlorophenyl)-2-hydroxyethyl)-2-fluorobenzamide] the value was 0.288 nM; for `Cn1cc(-c2cnc(N)c(-c3ccc(C(=O)NC4CC4c4ccccc4)c(F)c3)n2)cn1` (centres unmarked) [Example 155, 4-(3-amino-6-(1-methyl-1H-pyrazol-4-yl)pyrazin-2-yl)-2-fluoro-N-(2-phenylcyclopropyl)benzamide], 1.89 nM.
For `Cc1noc(C)c1-c1cnc(N)c(-c2ccc(C(=O)N[C@H](CO)c3ccccc3)c(F)c2)n1` [Example 156, (S)-4-(3-amino-6-(3,5-dimethylisoxazol-4-yl)pyrazin-2-yl)-2-fluoro-N-(2-hydroxy-1-phenylethyl)benzamide] the value was 3.32 nM; for `Cc1oncc1-c1cnc(N)c(-c2ccc(C(=O)N[C@H](CO)c3ccccc3)c(F)c2)n1` [Example 157, (S)-4-(3-amino-6-(5-methylisoxazol-4-yl)pyrazin-2-yl)-2-fluoro-N-(2-hydroxy-1-phenylethyl)benzamide], 0.416 nM.
For `Cc1oncc1-c1cnc(N)c(-c2ccc(C(=O)N[C@H](CO)c3ccccc3)c(F)c2)c1` [Example 158, (S)-4-(2-amino-5-(5-methylisoxazol-4-yl)pyridin-3-yl)-2-fluoro-N-(2-hydroxy-1-phenylethyl)benzamide] the value was 0.634 nM; for `Cn1cc(-c2cnc(N)c(-c3ccc(C(=O)N[C@H](CO)c4cccc(F)c4)c(F)c3)c2)c(C#N)n1` [Example 159, (S)-4-(2-amino-5-(3-cyano-1-methyl-1H-pyrazol-4-yl)pyridin-3-yl)-2-fluoro-N-(1-(3-fluorophenyl)-2-hydroxyethyl)benzamide], 3.14 nM; for `Cn1cc(-c2cnc(N)c(-c3ccc(C(=O)N[C@H](CO)c4cccc(Cl)c4)c(F)c3)c2)c(C#N)n1` [Example 160, (S)-4-(2-amino 5-(3-cyano-1-methyl-1H-pyrazol-4-yl)pyridin-3-yl)-N-(1-(3-chlorophenyl)-2-hydroxyethyl)-2-fluorobenzamide], 0.653 nM.
As for `Cc1ncc(-c2cnc(N)c(-c3ccc(C(=O)N[C@H](CO)c4ccccc4)c(F)c3)c2)n1C` [Example 161, (S)-4-(2-amino-5-(1,2-dimethyl-1H-imidazol-5-yl)pyridin-3-yl)-2-fluoro-N-(2-hydroxy-1-phenylethyl)benzamide], the IC50 was determined as 5.78 nM.
For `Cc1ncc(-c2cnc(N)c(-c3ccc(C(=O)N[C@H](CO)c4cccc(F)c4)c(F)c3)c2)n1C` [Example 163, (S)-4-(2-amino-5-(1,2-dimethyl-1H-imidazol-5-yl)pyridin-3-yl)-2-fluoro-N-(1-(3-fluorophenyl)-2-hydroxyethyl)benzamide] the value was 5.14 nM; for `Nc1ncc(-c2cnoc2)cc1-c1ccc(C(=O)N[C@H](CO)c2ccccc2)c(F)c1` [Example 164, (S)-4-(2-amino-5-(isoxazol-4-yl)pyridin-3-yl)-2-fluoro-N-(2-hydroxy-1-phenylethyl)benzamide], 1.4 nM; for `Cc1oncc1-c1cnc(N)c(-c2ccc(C(=O)N[C@H](CO)c3cccc(F)c3)c(F)c2)c1` [Example 165, (S)-4-(2-amino-5-(5-methylisoxazol-4-yl)pyridin-3-yl)-2-fluoro-N-(1-(3-fluorophenyl)-2-hydroxyethyl)benzamide], 390 nM.
Take `Cn1cnnc1-c1cnc(N)c(-c2ccc(C(=O)N[C@H](CO)c3cccc(Cl)c3)c(F)c2)c1` [Example 167, (S)-4-(2-amino-5-(4-methyl-4H-1,2,4-triazol-3-yl)pyridin-3-yl)-N-(1-(3-chlorophenyl)-2-hydroxyethyl)-2-fluorobenzamide]: the midpoint of inhibition, the IC50, lay at 0.998 nM.
